Consider five compounds from patent publication US20160137630A1, “INDUCTION OF GATA2 BY HDAC1 AND HDAC2 INHIBITORS” (ACETYLON PHARMACEUTICALS, INC., priority 2014, published 2016).

In one test the test system is MV4-11 cells. In words: GATA2 expression in MV4-11 AML cell line. Type of test: cell-based. The note with it: 1 uM single agent, 48 h and 72 h. As for the experimental part: FIG. 24. […] (A-B) MV4-11 cells were plated at 2×10^5 cells/ml at indicated doses for 48 h and 72 h. RNA was prepared and analyzed for GATA2 and GAPDH as internal control.
For a further test, the target named is HDAC6 (Homo sapiens, UniProt Q9UBN7). In words: in vitro biochemical HDAC inhibition assay.
HDAC6, sequence (Q9UBN7 whole entry): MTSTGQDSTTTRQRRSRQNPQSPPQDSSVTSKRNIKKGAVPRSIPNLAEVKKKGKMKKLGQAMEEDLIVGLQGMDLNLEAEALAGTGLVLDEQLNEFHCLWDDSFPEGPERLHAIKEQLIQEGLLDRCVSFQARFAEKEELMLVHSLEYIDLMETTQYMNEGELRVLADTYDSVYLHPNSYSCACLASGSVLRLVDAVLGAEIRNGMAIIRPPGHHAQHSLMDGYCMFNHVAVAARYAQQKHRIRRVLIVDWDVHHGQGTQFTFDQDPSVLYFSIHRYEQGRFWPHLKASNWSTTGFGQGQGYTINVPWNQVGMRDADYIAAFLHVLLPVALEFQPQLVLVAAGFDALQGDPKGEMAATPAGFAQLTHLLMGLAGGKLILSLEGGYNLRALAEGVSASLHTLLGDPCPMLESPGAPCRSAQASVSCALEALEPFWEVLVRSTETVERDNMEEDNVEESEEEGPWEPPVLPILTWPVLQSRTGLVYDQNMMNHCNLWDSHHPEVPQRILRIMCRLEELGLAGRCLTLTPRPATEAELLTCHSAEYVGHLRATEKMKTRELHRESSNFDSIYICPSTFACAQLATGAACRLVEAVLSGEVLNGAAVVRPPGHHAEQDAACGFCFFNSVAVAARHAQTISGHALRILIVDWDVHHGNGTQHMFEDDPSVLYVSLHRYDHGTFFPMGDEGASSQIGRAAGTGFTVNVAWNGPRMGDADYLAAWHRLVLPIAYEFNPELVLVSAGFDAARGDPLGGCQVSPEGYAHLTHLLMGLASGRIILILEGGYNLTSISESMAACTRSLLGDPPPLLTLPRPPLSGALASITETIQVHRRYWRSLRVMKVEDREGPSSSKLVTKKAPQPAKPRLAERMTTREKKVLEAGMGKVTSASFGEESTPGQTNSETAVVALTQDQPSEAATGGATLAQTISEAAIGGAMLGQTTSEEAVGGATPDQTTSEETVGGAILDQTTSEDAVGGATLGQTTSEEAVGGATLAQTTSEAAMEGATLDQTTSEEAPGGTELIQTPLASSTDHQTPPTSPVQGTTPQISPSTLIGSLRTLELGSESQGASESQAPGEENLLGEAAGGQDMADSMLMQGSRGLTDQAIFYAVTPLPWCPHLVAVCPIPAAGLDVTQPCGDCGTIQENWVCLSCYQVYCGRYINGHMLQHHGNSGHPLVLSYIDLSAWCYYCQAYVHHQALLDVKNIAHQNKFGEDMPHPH
Another test addresses HDAC2 (Homo sapiens, UniProt Q92769). The test is described as follows: in vitro biochemical HDAC inhibition assay. The settings on record: Table 3; read-out: IC50 HDAC2.
In a further test the target is HDAC1 (Homo sapiens, UniProt Q13547). The test is described as follows: in vitro biochemical HDAC inhibition assay. The settings on record: Table 3; read-out: IC50 HDAC1.
HDAC1, sequence (Q13547 whole entry): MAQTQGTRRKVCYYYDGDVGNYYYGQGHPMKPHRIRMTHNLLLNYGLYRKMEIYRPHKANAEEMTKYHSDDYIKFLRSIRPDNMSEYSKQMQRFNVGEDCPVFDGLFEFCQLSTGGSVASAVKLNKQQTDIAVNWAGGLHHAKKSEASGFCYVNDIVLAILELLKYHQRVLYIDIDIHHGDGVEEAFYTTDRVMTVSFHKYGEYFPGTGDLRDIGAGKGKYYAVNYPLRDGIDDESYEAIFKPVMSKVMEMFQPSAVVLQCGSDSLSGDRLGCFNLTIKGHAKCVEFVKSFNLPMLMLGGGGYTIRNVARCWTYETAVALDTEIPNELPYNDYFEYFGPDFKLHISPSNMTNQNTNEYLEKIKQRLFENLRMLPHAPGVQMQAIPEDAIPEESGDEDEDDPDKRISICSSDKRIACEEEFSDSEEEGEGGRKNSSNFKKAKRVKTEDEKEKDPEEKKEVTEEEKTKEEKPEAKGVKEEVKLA
The target of another test is HDAC3 (Homo sapiens, UniProt O15379). The test is described as follows: in vitro biochemical HDAC inhibition assay. The note with it: Table 3; read-out: IC50 HDAC3.
HDAC3, sequence (O15379 whole entry): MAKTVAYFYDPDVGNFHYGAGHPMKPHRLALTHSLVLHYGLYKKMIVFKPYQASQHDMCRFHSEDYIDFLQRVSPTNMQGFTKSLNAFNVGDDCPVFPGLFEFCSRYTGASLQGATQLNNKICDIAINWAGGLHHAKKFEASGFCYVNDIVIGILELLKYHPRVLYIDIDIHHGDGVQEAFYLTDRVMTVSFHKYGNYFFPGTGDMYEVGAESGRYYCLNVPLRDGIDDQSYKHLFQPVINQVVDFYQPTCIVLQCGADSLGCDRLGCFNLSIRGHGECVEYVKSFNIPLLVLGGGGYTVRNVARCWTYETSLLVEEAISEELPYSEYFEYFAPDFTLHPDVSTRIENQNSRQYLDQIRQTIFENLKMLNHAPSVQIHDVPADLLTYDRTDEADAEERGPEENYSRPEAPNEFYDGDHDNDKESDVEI
HDAC3, sequence (Q9Y618 395-489 partner limits assumed): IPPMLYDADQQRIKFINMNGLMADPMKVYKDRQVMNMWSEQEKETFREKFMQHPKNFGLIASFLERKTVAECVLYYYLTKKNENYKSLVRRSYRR
In test [1] the test system is human bone marrow-derived CD34+ cells. In words: viability of expanded CD34+ cells. Type of test: cell-based. The settings on record: Homo sapiens, 48 h; 2 days of treatment; FIG. 19A. From the text: This possibility was first tested by measuring the viability of expanded human bone marrow-derived CD34+ cells, composed of primitive and more differentiated hematopoietic progenitors of multiple lineages, following 2 days of treatment with compound.

The subject of test [2] is Human CD34+ bone marrow cells. In words: erythroid maturation in CS1 by CD71/GlyA flow cytometry. Type of test: cell-based. The note with it: 1 μM, first 5 days. From the text: To investigate the effects of HDAC inhibition on later stages of erythroid maturation, differentiation in CS1 was followed by flow cytometry using fluorescent antibodies against the transferrin receptor (CD71) and glycophorin A (GlyA). […] The majority of vehicle control cells continued to differentiate, becoming CD71^posGlyA^pos by day 8. […] CD71^posGlyA^mid cells are equivalent to proerythroblasts (ProE), while CD71^posGlyA^pos cells include the more differentiated basophilic and polychromatic erythroblasts.
A general note: In flow cytometry, cells or beads pass a laser one at a time.

The subject of another test is HbG mRNA. In words: % HbG mRNA induction in 2-phase culture systems CS1 and CS2. Type of test: cell-based, human. From the text: Then, the cells were differentiated by exposure to either vehicle (control) or Compound 001. RNA samples of HbG were taken at days 0, 3, 5, and 8. […] Staining cells with a FITC-conjugated anti-HbF antibody and flow cytometry was used to measure induction of fetal hemoglobin.

The subject of another test is HDACs 4-9. In words: in vitro HDAC inhibition assay, HDACs 4-9. The class given is biochemical. The note with it: concentrations as high as 20 μM; FIG. 20.

“Also recorded” adds a separate entry of the source. Read-outs that look alike come from different tables or passages of the source.

HDAC2, sequence (Q92769 whole entry): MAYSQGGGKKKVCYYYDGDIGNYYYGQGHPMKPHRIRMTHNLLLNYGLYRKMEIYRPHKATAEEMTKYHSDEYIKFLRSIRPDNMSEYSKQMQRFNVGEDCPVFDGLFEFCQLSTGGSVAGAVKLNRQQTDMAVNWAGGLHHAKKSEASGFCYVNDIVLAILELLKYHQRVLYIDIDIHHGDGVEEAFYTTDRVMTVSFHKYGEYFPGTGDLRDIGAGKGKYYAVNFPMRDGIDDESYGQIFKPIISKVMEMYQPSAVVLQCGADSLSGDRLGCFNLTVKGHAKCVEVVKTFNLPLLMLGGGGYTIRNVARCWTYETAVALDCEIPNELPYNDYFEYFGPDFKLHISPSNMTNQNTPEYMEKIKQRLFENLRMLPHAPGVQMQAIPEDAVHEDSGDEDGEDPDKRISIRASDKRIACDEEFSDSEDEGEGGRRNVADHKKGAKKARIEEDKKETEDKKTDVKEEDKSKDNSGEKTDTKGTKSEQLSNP

Regarding `Nc1ncn([C@@H]2O[C@H](CO)[C@@H](O)[C@H]2O)c(=O)n1` [Azacitidine, azacitidine, reference compound], the GATA2 level entry in the test on MV4-11 cells was “induced GATA2 level”.

As for `Nc1ccc(-c2cccs2)cc1NC(=O)c1ccc2c(c1)cc(C1CC1)n2CCN1CCOCC1` [Compound 005, N-(2-amino-5-(thiophen-2-yl)phenyl)-2-cyclopropyl-1-(2-morpholinoethyl)-1H-indole-5-carboxamide], in the test with MV4-11 cells, the GATA2 level entry is given as “induced GATA2 level”.

The IC50 is the point on the concentration scale where inhibition reaches its midpoint. Regarding `O=C(NO)c1cnc(NC2(c3ccccc3)CCN(C(=O)Nc3ccc(Cl)c(Cl)c3)CC2)nc1` [Compound 1011], the IC50 is 14 nM at HDAC6 (read-out: IC50 HDAC6, Table 3); 177 nM on HDAC2; 110 nM on HDAC1; 2160 nM at HDAC3.

For the compound `CC(C)[C@@H](C(=O)N1CCC(C)(Nc2ncc(C(=O)NO)cn2)CC1)c1ccccc1` [Compound 1027], the IC50 turned out to be 12 nM against HDAC6, 103 nM on HDAC2, 130 nM on HDAC1 and 422 nM on HDAC3.

As for `Nc1ccccc1NC(=O)c1ccc(CNC(=O)OCc2cccnc2)cc1` [Entinostat, reference compound], the IC50 in test [1] worked out at 3000 nM. Further, in test [2], the “erythroid differentiation (CD71/GlyA)” value is given as “differentiated normally”. Further, the “% HbG” value with HbG mRNA (1 μM, increased from 10%) amounted to 46%. Further, in the test with HbG mRNA (differentiation phase, both culture systems, FIG. 10B, 21A-C), the “induction in % HbG” value is “dose- and time-dependent induction”. Moreover, the “inhibition of HDACs 4-9” value with HDACs 4-9 is “negligible inhibitory activity; also recorded: no inhibition”.
